{"source": "patent US9011853B2", "about": "“B7-H4 fusion proteins and methods of use thereof” (Amplimmune, Inc., priority 2009, dated 2015)", "key": {"[1]": {"system": "CD4^+ T cells, Treg cells, effector/memory CD4^+ T cells", "assay": "T cell subsets in spleen, draining lymph nodes and CNS of R-EAE mice (FACS, immunochemical staining)", "assay_type": "in vivo, mouse", "description": "Mice were anesthetized with nembutal and perfused with phosphate-buffered saline (PBS). Brains and spinal cords from each mouse were frozen in OCT (Miles Laboratories; Elkhart, Ind.) in liquid nitrogen. Tissue from the lower lumbar region of the spinal cord was sectioned at 6 μm on a Reichert-Jung 1800 cryotome and mounted on Superfrost Plus electrostatically charged slides. Cross-sections (10 μm thick for brains and 6 μm for spinal cords) from longitudinal sections of brain and spinal cord were performed. Tissues were stained with biotin-conjugated antibody to mouse CD4, PLP and FoxP3. Positive staining of biotinylated antibodies was visualized by a Tyramide Signal Amplification (TSA) Direct kit (NEN, Boston, Mass.) according to manufacturer's instructions and fluorescein anti-mouse IgG (Vector Laboratories). Sections were counterstained with 4,6-diamidino-2-phenylindole (DAPI; Sigma-Aldrich) and then coverslipped with Vectashieldmounting medium (Vector Laboratories). Slides were examined and images were acquired via epifluorescence using the SPOT RT camera (Diagnostic Instruments, Sterling Heights, Mich.). Sections from each group were analyzed at 40 or 100× magnification.\nThe effect of B7-H4-Ig treatment on the number of Treg cells in vivo was analyzed in this study. The effect of B7-H4-Ig on the number and phenotype of CD4^+ T cells infiltrating into the CNS following B7-H4-Ig treatment, the relevant site for activity in vivo, was determined. […] SJL mice were first immunized with PLP139-151 peptide. B7-H4-Ig treatment started during remission (Day 23). Mice received mouse Control IgG, 100 μg, or B7-H4-Ig at either 60 or 300 μg, 3 times per week for 2 weeks or 4 weeks. Half of the animals (5 mice from each group) were euthanized on Day 35, after 6 doses of B7-H4-Ig. The rest of the animals (5 mice from each group) were euthanized on Day 50, after 12 doses of B7-H4-Ig. Mouse spleens, draining lymph nodes, spinal cords and brains were collected, tissues were made into a single cell suspension and counted via the use of a hemocytometer, and analyzed for the presence of effector/memory CD4^+ T cells (CD4^+CD44^+) and Treg cells (CD4^+CD25^+FoxP3^+). Whole cerebellar and lumbar spinal cord tissue samples were snap frozen and processed as described above to analyze the number of CD4^+ and FoxP3^+ cells present within the CNS by histology.\nCells isolated from spleen, draining lymph node and also lumbar spinal cord were stained for CD4, CD44 and FoxP3 followed by FACS analysis to obtain the number of total CD4^+ T cells, Treg (CD4^+/Foxp3^+) and effector/memory CD4^+ T cells (CD4^+/CD44^+). The data is presented in FIGS. 43A, 43B, and 43C as the mean number of cells for each phenotype from individual mouse. […] Similar data was obtained after the full course of 12 treatments."}, "SJL mice": {"system": "SJL mice", "assay": "Delayed-type hypersensitivity (DTH) responses, 24 hr ear swelling assay in R-EAE mice", "assay_type": "in vivo, mouse", "conditions": "given from Day 0, 5 injections, both 3 mg/kg (60 μg) and 15 mg/kg (300 μg); ear challenge Day 10 (FIG. 39)", "description": "DTH responses were quantitated using a 24 hr ear swelling assay as previously described. Pre-challenge ear thickness was determined using a Mitutoyo model 7326 engineer's micrometer (Schlesinger's Tools, Brooklyn, N.Y.). Immediately thereafter, DTH responses were elicited by injecting 10 μg of peptide in 10 μL of PBS into the dorsal surface of the ear using a 100 μL Hamilton syringe fitted with a 30 gauge needle. The increase in ear thickness over pre-challenge measurements was determined 24 hr after ear challenge. Results are expressed in units of 10^−4 inches±SEM. […] Significance of ear swelling in murine B7-H4-Ig treated mice over Control IgG injected mice was assessed by the Student's t test.\nTo determine the effect of B7-H4-Ig on blocking CD4^+ T cell mediated activity specific for the primary myelin-derived epitope PLP139-151 and epitope spreading, peptide-specific responses in vivo via DTH on all 4 treatment groups were analyzed. Mice were ear challenged with 10 μg of the indicated peptides on Day 50, and swelling was measured 24 h later.\nTo clarify the effect of B7-H4-Ig on the EAE acute phase, a 2nd in vivo experiment was conducted in the PLP139-151 induced MAE model. […] Mice were ear challenged with 10 μg of PLP139-151 on Day 10, and swelling was measured 24 h later. […]"}, "[2]": {"assay": "Clearance from circulation", "assay_type": "in vivo", "conditions": "compared with control IgG"}, "[3]": {"system": "naïve CD4^+CD62L^+ T cells (responder) with nTreg cells", "assay": "In vitro nTreg suppression assay", "assay_type": "cell-based, mouse", "parameters": "CD4+ T cell activation and proliferation: dose or concentration left out as unconfirmed", "description": "Spleens and lymph nodes were harvested from 10 FoxP3-GFP mice on a B6 background. […] Naïve CD4^+ T cells were purified from the rest of the cells as described above. A total of 6.2×10^8 naïve CD4^+ T cells were collected. 5×10^7 cells were set aside to be effector T cells in the experiment. The remainder of the cells (5.7×10^8) were stained with anti-CD4 PE-Cy7, and the PE-Cy7^+/GFP^+ cells were sorted via MoFlo. A total of 4×10^6 nTreg (CD4^+/FoxP3^+) cells were collected from the MoFlo at 99% purity. […] The culture wells also received various ratios of nTreg cells: B7-H4-Ig. nTreg cells (CD4^+/CD62L^+/FoxP3-GFP^+) were isolated from B6/FoxP3-GFP mice by MoFLo sorting. Naïve GFP^− T cells CD4^+/CD62L^+/FoxP3-GFP^−) were used as responder cells. Increasing numbers of the nTreg cells were added to constant numbers of naïve CD4^+CD62L^+ T cells, irradiated splenocytic APCs, and anti-CD3 (FIG. 31). […]"}}, "data": [{"substance": "B7-H4-Ig: B7-H4 extracellular domain fused to Ig Fc; bare label is the human protein in Example 3, murine protein in Examples 1, 2, 5, 7-11", "values": [{"measurement": "amount of Treg cells in the CNS", "setting": "[1]; FIG. 43C", "value": "appeared constant"}, {"measurement": "number of Treg (CD4+/FoxP3+) cells within the spleen and lymph node", "setting": "[1]; R-EAE mice treated during remission (FIGS. 43A, 43B)", "value": "remarkably increased"}, {"measurement": "level of demyelination via anti-PLP staining", "setting": "[1]; control IgG vs B7-H4-Ig treated mice", "value": "no significant difference in the level of demyelination"}, {"measurement": "number of FoxP3+ cells within the CNS (histology)", "setting": "[1]; lumbar spinal cord cross sections", "value": "increases the number of FoxP3^+ cells within the CNS"}, {"measurement": "percentage of Treg cells among CD4+ T cells in the CNS", "setting": "[1]; vs Control IgG injected mice (FIG. 44)", "value": "significantly higher"}, {"measurement": "effector/memory T cells (CD4+/CD44+) within the CNS", "setting": "[1]; vs Control IgG treated mice (FIG. 43C)", "value": "decreased"}, {"measurement": "DTH response to PLP139-151 peptide versus OVA323-339 peptide", "setting": "SJL mice", "value": "significantly inhibited"}, {"measurement": "clearance from circulation", "setting": "[2]", "value": "cleared from circulation more rapidly than control IgG"}, {"measurement": "anti-CD3 induced T cell activation", "setting": "[3]; 1:0.12 and 1:0.25 ratios of T cell responder:nTreg, 5 or 10 μg/mL (FIG. 32)", "value": "completely blocked anti-CD3 induced T cell activation"}, {"measurement": "CD4+ T cell activation and proliferation", "setting": "[3]; absence of nTreg cells (ratio 1:0), 0, 1, 5, or 10, anti-CD3 (FIG. 32)", "value": "suppressed CD4^+ T cell activation and proliferation in a dose dependent manner"}]}]}
